Source: patent publication US8471032B2, “Benzimidazole compound in crystal form and salt thereof” (Mitsubishi Tanabe Pharma Corporation, priority 2008, dated 2013)
In brackets after ≈: the same amount, converted by molar mass.

Legend:
[1] = Solubility in water at 37° C. (HPLC, calibration curve method); type: physicochemical; settings: shaken for 4 hr
Method: The solubility of the obtained compounds in water at 37° C. was measured under the following conditions. An adequate amount of each sample was taken, water was added to each sample, and the mixture was shaken at 37° C. for 4 hr. The supernatant was filtered through a filter, and diluted with a mixed solution of TFA/acetonitrile/water=(0.05:30:70) as necessary to give a sample solution. The concentration (mg/ml) of the sample solution was measured by high performance liquid chromatography (HPLC) with a calibration curve method, and taken as the solubility in water at 37° C.
apparatus: HPLC System Class-VP (SHIMADZU Corporation)
detector: photodiode array detector
measurement wavelength range: 200-370 nm
column: Inertsil ODS-3V (4.6 mm9×150 mm)
column temperature: 40° C.
mobile phase: SOLUTION A 0.05% aqueous trifluoroacetic acid solution • SOLUTION B 0.05% trifluoroacetic acid-acetonitrile solution • A:B=70:30 (Isocratic Elution)

[2] = Water adsorption measurement (DVS-1 water adsorption apparatus), index of hygroscopicity; type: physicochemical; settings: relative humidity changed within 0% to 95%; amount of change based on the weight at relative humidity 0%
Method: The water adsorption measurement, which becomes an index of hygroscopicity, was performed using a DVS-1 type water adsorption apparatus (manufactured by SMS) under the following conditions. Using a sample (about 6-12 mg), the relative humidity was changed within the relative humidity range of 0% to 95%. The weight change was recorded for each predetermined relative humidity, and converted to the amount of change (%) based on the weight at relative humidity 0%. […] As to this compound, the zero point was amended based on the moisture value of the sample measured by the Karl Fischer's method, and the weight change was converted to the amount of change (%).

CNC(=O)Cn1c(=O)n(C2CCN([C@@H]3Cc4cccc5cccc3c45)CC2)c2ccccc21 [Example 1, (R)-2-{3-[1-(acenaphthen-1-yl)piperidin-4-yl]-2,3-dihydro-2-oxo-benzimidazol-1-yl}-N-methylacetamide]
solubility in water [1]: > 2 mg/mL
weight increase (water adsorption / moisture absorption) [2]: 0.2%

CNC(=O)Cn1c(=O)n(C2CCN([C@@H]3Cc4cccc5cccc3c45)CC2)c2ccccc21 [Example 2, (R)-2-{3-[1-(acenaphthen-1-yl)piperidin-4-yl]-2,3-dihydro-2-oxo-benzimidazol-1-yl}-N-methylacetamide]
weight increase (water adsorption / moisture absorption) [2]: 0.2%

CNC(=O)Cn1c(=O)n(C2CCN([C@@H]3Cc4cccc5cccc3c45)CC2)c2ccccc21 [Example 6, (R)-2-{3-[1-(acenaphthen-1-yl)piperidin-4-yl]-2,3-dihydro-2-oxo-benzimidazol-1-yl}-N-methylacetamide]
solubility in water [1]: > 2 mg/mL
weight increase (water adsorption / moisture absorption) [2]: 0.4%

CNC(=O)Cn1c(=O)n(C2CCN([C@@H]3Cc4cccc5cccc3c45)CC2)c2ccccc21 [Example 8, (R)-2-{3-[1-(acenaphthen-1-yl)piperidin-4-yl]-2,3-dihydro-2-oxo-benzimidazol-1-yl}-N-methylacetamide]
weight increase (water adsorption / moisture absorption) [2]: 2.0%

CNC(=O)Cn1c(=O)n(C2CCN([C@@H]3Cc4cccc5cccc3c45)CC2)c2ccccc21 [Example 10, (R)-2-{3-[1-(acenaphthen-1-yl)piperidin-4-yl]-2,3-dihydro-2-oxo-benzimidazol-1-yl}-N-methylacetamide]
solubility in water [1]: 0.3 mg/mL (≈ 681 µM)
weight increase (water adsorption / moisture absorption) [2]: 1.3%

CNC(=O)Cn1c(=O)n(C2CCN([C@@H]3Cc4cccc5cccc3c45)CC2)c2ccccc21 [Example 16, (R)-2-{3-[1-(acenaphthen-1-yl)piperidin-4-yl]-2,3-dihydro-2-oxo-benzimidazol-1-yl}-N-methylacetamide]
solubility in water [1]: 0.01 mg/mL (≈ 22.7 µM)

CNC(=O)Cn1c(=O)n(C2CCN([C@@H]3Cc4cccc5cccc3c45)CC2)c2ccccc21 [Example 17, (R)-2-{3-[1-(acenaphthen-1-yl)piperidin-4-yl]-2,3-dihydro-2-oxo-benzimidazol-1-yl}-N-methylacetamide]
solubility in water [1]: 0.01 mg/mL (≈ 22.7 µM)
